Assays:
PEO1 cells = assay: Cell viability and synergy with cisplatin; assay type: cell-based; conditions: at 1 μM and 10 μM, 72 h
OVCAR5 cells = assay: Cell viability and synergy with cisplatin; assay type: cell-based; conditions: at 1 μM and 10 μM, 72 h

Row | SMILES | Cytotoxicity of compound alone, PEO1 (PEO1 cells) | Cytotoxicity of compound alone, OVCAR5 (OVCAR5 cells)
1 | O=c1c2cn(C3COC3)nc2nc(SCc2cccc(F)c2)n1-c1ccccc1 [Compound 13g, 6-((3-Fluorobenzyl)thio)-2-(oxetan-3-yl)-5-phenyl-2H-pyrazolo[3,4-d]pyrimidin-4(5H)-one] | did not show cytotoxicity | did not show cytotoxicity
2 | O=c1c2cnn(C3COC3)c2nc(SCc2cccc(F)c2)n1-c1ccccc1 [Compound 12g, 6-((3-Fluorobenzyl)thio)-1-(oxetan-3-yl)-5-phenyl-1H-pyrazolo[3,4-d]pyrimidin-4(5H)-one] | did not show cytotoxicity | did not show cytotoxicity

— publication PMC6477540 (Journal of medicinal chemistry, 2018)
